Tests used:
Type in all cases: cell-based
A375 = assay: PLX4720 and MAPK inhibitor sensitivity of ORF-expressing A375 (secondary screen); conditions: for effect of ectopic GEF expression on sensitivity to the inhibitor: A375 transfected with GEF ORFS; for sensitivity of A375 to the inhibitor: parental A375 cell line
Description: A375 (1.5×10^3) and SKMEL28 cells (3×10^3) were seeded in 96-well plates for 18 h. ORF-expressing lentivirus was added at a 1:10 dilution in the presence of 8 μg/ml polybrene, and centrifuged at 2250 RPM and 37° C. for 1 h. Following centrifugation, virus-containing media was changed to normal growth media and allowed to incubate for 18 h. Twenty-four hours after infection, DMSO (1:1000) or 10× PLX4720 (in DMSO) was added to a final concentration of 100, 10, 1, 0.1, 0.01, 0.001, 0.0001 or 0.00001 μM. Cell viability was assayed using WST-1 (Roche), per manufacturer recommendation, 4 days after the addition of PLX4720.
Cultured cells were seeded into 96-well plates (3,000 cells per well) for all melanoma cell lines; 1,500 cells were seeded for A375. Twenty-four hours after seeding, serial dilutions of the relevant compound were prepared in DMSO added to cells, yielding final drug concentrations ranging from 100 μM to […], with the final volume of DMSO not exceeding 1%. Cells were incubated for 96 h following addition of drug. Cell viability was measured using the WST1 viability assay (Roche). Viability was calculated as a percentage of control (untreated cells) after background subtraction. A minimum of six replicates were performed for each cell line and drug combination. Data from growth-inhibition assays were modeled using a nonlinear regression curve fit with a sigmoid dose-response. […] Sigmoid-response curves that crossed the 50% inhibition point at or above 10 μM have GI50 values annotated as >10 μM. For single-dose studies, the identical protocol was followed, using a single dose of indicated drug (1 μM unless otherwise noted).

WM266.4 [1] = assay: Immunoblots of MITF, SOX10, acetylated histone H3 and other proteins in melanoma cells; conditions: for acetylated histone H3: WM266.4, 18 hours; for SOX10 and MITF expression: WM266.4, independent of ERK phosphorylation
Description: (§1) Adherent cells were washed once with ice-cold PBS and lysed passively with 1% NP-40 buffer [150 mM NaCl, 50 mM Tris pH 7.5, 2 mM EDTA pH 8, 25 mM NaF and 1% NP-40] containing 2× protease inhibitors (Roche) and 1× Phosphatase Inhibitor Cocktails I and II (CalBioChem). Lysates were quantified (Bradford assay), normalized, reduced, denatured (95° C.) and resolved by SDS gel electrophoresis on 4-20% Tris/Glycine gels (Invitrogen). […] After incubation with the appropriate secondary antibody (anti-rabbit, anti-mouse or anti-goat IgG, IRDye-linked; 1:15,000 dilution; IRDye 800CW, 1:20,000 IRDye 680LT, LiCOR), proteins were imaged using an Odyssey CLx scanner (LiCOR).

WM266.4 [2] = assay: Single-dose cell viability of forskolin-treated cells with MAPK-pathway and HDAC inhibitors; conditions: sub-lethal doses; Panobinostat 10 nM, Vorinostat 1.5 μM, Entinostat 1.5 μM; 96 hrs
Description: Twenty-four hours after seeding, serial dilutions of the relevant compound were prepared in DMSO to 1000× stocks. Drug stocks were then diluted 1:100 into appropriate growth media and added to cells at a dilution of 1:10 (lx final), yielding drug concentrations ranging from 100 μM to 1×10-5 μM, with the final volume of DMSO not exceeding 1%. When indicated, forskolin (10 μM), IBMX (100 μM), dbcAMP (100 μM) were added concurrent with MAPK-pathway inhibitors. Cells were incubated for 96 h following addition of drug. Cell viability was measured using CellTiterGlo viability assay (Promega). Viability was calculated as a percentage of control (DMSO treated cells). A minimum of six replicates were performed for each cell line and drug combination. Data from growth-inhibition assays were modeled using a nonlinear regression curve fit with a sigmoid dose-response. […] For single-dose studies, WM266.4 were seeded at 5,000 cells/well in 96-well, white-walled, clear bottom plates and the identical protocol (above) was followed, using a single dose of indicated drug.

WM266.4 [3] = assay: Western blot of CREB and ERK phosphorylation; conditions: WM266.4, 1 hr treatment
Description: as §1

WM266.4 [4] = assay: Quantitative RT/PCR of MITF, FOS, NR4A1 and NR4A2 mRNA; conditions: within 1 hour of treatment, absence of MEK inhibitor
Description: mRNA was extracted from WM266.4 using the RNeasy kit (Qiagen) and homogenized using the Qiashredder kit (Qiagen). Total mRNA was used for subsequent reverse transcription using the SuperScript III First-Strand Synthesis SuperMix (Invitrogen). 5 μl of reverse-transcribed cDNA was used for quantitative PCR using SYBR Green PCR Master Mix and gene-specific primers, in quadruplicate, using an ABI PRISM 7900 Real Time PCR System. Primers used for detection were as follows; NR4A2 forward: 5′-GTTCAGGCGCAGTATGGGTC-3′ (SEQ ID NO: 7); NR4A2 reverse: 5′-AGAGTGGTAACTGTAGCTCTGAG-3′ (SEQ ID NO: 8); NR4A1 forward: 5′-ATG CCC TGT ATC CAA GCC C-3′ (SEQ ID NO: 9); NR4A1 reverse: 5′-GTGTAGCCGTCCATGAAGGT-3′ (SEQ ID NO: 10); DUSP6 forward: 5′-CTG CCG GGC GTT CTA CCT-3′ (SEQ ID NO: 11); DUSP6 reverse: 5′-CCAGCCAAGCAATGTACCAAG-3′ (SEQ ID NO: 12); MITF forward: 5′-TGC CCA GGC ATG AAC ACA C-3′ (SEQ ID NO: 13); MITF reverse: 5′-TGGGAAAAATACACGCTGTGAG-3′ (SEQ ID NO: 14); FOS forward: 5′-CACTCCAAGCGGAGACAGAC-3′ (SEQ ID NO: 15); FOS reverse: 5′-AGGTCATCAGGGATCTTGCAG-3′ (SEQ ID NO: 16); TBP forward: 5′-CCCGAAACGCCGAATATAATCC-3′ (SEQ ID No: 17); TBP reverse: 5′-GACTGTTCTTCACTCTTGGCTC-3′ (SEQ ID NO: 18). Relative expression was determined using the comparative CT method (Applied Biosystems).

Structure (SMILES): Cc1cnc(Nc2ccc(F)cc2Cl)nc1-c1c[nH]c(C(=O)N[C@H](CO)c2cccc(Cl)c2)c1 [VTX-11E]
- effect of ectopic GEF expression on sensitivity to the inhibitor (A375): decreased sensitivity
- sensitivity of A375 to the inhibitor (A375): sensitive

Structure (SMILES): Cc1[nH]c2ccccc2c1CCNCc1ccc(/C=C/C(=O)NO)cc1 [Panobinostat]
- acetylated histone H3 (WM266.4 [1]): increases
- SOX10 and MITF expression (WM266.4 [1]): reduction
- sensitivity of forskolin-treated cells to MAPK-pathway inhibitors (WM266.4 [2]): restored sensitivity to MAPK-pathway inhibitors to levels approaching parental cells

Structure (SMILES): O=C(CCCCCCC(=O)Nc1ccccc1)NO [Vorinostat]
- acetylated histone H3 (WM266.4 [1]): increases
- SOX10 and MITF expression (WM266.4 [1]): reduction

Structure (SMILES): O=S(=O)(NCCNC/C=C/c1ccc(Br)cc1)c1cccc2cnccc12 [H89]
- effect on forskolin-mediated rescue of MITF protein expression (WM266.4 [1]; WM266.4, 10 μM H89 pre-treatment): largely abrogated

Structure (SMILES): Nc1ccccc1NC(=O)c1ccc(CNC(=O)OCc2cccnc2)cc1 [Entinostat]
- sensitivity of forskolin-treated cells to MAPK-pathway inhibitors (WM266.4 [2]): restored sensitivity to MAPK-pathway inhibitors to levels approaching parental cells

Structure (SMILES): Cn1cnc2c(F)c(Nc3ccc(Br)cc3Cl)c(C(=O)NOCCO)cc21 [AZD6244]
- effect of ectopic GEF expression on sensitivity to the inhibitor (A375): decreased sensitivity
- sensitivity of A375 to the inhibitor (A375): sensitive

Structure (SMILES): C=C[C@@]1(C)CC(=O)[C@]2(O)[C@@]3(C)[C@@H](O)CCC(C)(C)[C@@H]3[C@H](O)[C@H](OC(C)=O)[C@@]2(C)O1 [forskolin]
- ERK phosphorylation (WM266.4 [3]): no effect
- increases in mRNA expression of MITF, FOS, NR4A1 and NR4A2 (WM266.4 [4]): 2- to 20 fold

From US20150141470A1, “DIAGNOSTIC AND TREATMENT METHODS IN PATIENTS HAVING OR AT RISK OF DEVELOPING RESISTANCE TO CANCER THERAPY” (The Broad Institute, Inc., priority 2012, published 2015)
